Measured values as given in patent publication US10047051B2, “Substituted pyridines and method of use” (AbbVie S.á{acute over (.)}r.l., priority 2015, dated 2018).

Experiments:
CFTR ΔF508 mutant = molecular target: T1, CFTR ΔF508 mutant (Homo sapiens, UniProt P13569, DEL508-508); assay: YFP-halide influx assay for the CFTR-ΔF508 mutation (CFBE41o- cells); assay type: cell-based; conditions: forskolin 10.67 μM; for EC50: from (1−F/F0) vs concentration plot
T1 construct: expressed in transfected cells; host or cells: CFBE41o- cells, adenoviral transduction
T1 sequence (P13569 with tags, fused parts or gaps DEL508-508): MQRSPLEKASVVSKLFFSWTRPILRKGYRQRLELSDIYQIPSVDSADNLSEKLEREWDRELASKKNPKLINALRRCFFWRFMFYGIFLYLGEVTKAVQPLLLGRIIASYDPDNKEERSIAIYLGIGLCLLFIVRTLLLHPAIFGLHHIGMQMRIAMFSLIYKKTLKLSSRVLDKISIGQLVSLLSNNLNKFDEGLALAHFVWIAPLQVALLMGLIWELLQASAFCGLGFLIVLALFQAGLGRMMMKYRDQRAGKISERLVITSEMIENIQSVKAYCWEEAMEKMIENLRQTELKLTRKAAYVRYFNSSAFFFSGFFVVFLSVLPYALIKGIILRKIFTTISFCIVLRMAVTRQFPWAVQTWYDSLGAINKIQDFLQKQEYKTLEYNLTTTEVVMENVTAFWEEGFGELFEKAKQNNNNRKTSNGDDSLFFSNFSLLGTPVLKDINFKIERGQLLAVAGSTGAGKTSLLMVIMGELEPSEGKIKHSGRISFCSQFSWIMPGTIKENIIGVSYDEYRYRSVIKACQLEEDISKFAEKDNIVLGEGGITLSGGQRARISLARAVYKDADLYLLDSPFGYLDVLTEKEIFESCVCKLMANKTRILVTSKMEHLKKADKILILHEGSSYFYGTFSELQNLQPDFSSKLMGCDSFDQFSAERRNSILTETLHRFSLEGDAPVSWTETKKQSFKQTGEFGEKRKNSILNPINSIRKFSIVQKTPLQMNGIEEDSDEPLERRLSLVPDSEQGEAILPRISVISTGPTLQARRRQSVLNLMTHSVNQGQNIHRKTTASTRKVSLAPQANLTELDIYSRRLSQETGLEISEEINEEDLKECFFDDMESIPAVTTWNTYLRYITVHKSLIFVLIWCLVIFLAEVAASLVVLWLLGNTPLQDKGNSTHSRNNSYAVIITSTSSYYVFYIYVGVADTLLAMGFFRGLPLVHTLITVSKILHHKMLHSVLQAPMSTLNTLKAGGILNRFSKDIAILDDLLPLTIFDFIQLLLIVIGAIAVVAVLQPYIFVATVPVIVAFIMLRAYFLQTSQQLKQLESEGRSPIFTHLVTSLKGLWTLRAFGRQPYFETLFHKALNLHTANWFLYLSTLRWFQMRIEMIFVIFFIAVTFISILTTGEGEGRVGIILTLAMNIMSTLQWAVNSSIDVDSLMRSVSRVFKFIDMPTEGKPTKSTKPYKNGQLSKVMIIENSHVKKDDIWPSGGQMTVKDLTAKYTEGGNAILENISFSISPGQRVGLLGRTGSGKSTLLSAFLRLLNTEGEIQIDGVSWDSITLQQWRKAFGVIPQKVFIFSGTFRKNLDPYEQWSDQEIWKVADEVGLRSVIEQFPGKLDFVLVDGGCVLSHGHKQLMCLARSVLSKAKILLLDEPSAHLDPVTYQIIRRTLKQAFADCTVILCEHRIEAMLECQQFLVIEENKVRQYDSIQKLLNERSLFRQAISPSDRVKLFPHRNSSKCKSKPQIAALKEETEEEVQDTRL
Summary of the method: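 EC50 derived from plotting 1−F/F0 (fluorescence 36 s after iodide injection over pre-injection value) against compound concentration. Cells: CFBE41o- transduced with ΔF508-CFTR and YFP quench reporter, corrected 24 h at 27° C or by a CFTR modulator at 37° C.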

CFTR G551D mutant = molecular target: T2, CFTR G551D mutant (Homo sapiens, UniProt P13569, G551D); assay: YFP-halide influx assay for the CFTR-G551D mutation (HEK293 cells); assay type: cell-based; conditions: forskolin 10.67 μM
T2 construct: expressed in transfected cells; host or cells: HEK293 cells, reverse transfection with plasmids
T2 sequence (P13569 whole entry G551D): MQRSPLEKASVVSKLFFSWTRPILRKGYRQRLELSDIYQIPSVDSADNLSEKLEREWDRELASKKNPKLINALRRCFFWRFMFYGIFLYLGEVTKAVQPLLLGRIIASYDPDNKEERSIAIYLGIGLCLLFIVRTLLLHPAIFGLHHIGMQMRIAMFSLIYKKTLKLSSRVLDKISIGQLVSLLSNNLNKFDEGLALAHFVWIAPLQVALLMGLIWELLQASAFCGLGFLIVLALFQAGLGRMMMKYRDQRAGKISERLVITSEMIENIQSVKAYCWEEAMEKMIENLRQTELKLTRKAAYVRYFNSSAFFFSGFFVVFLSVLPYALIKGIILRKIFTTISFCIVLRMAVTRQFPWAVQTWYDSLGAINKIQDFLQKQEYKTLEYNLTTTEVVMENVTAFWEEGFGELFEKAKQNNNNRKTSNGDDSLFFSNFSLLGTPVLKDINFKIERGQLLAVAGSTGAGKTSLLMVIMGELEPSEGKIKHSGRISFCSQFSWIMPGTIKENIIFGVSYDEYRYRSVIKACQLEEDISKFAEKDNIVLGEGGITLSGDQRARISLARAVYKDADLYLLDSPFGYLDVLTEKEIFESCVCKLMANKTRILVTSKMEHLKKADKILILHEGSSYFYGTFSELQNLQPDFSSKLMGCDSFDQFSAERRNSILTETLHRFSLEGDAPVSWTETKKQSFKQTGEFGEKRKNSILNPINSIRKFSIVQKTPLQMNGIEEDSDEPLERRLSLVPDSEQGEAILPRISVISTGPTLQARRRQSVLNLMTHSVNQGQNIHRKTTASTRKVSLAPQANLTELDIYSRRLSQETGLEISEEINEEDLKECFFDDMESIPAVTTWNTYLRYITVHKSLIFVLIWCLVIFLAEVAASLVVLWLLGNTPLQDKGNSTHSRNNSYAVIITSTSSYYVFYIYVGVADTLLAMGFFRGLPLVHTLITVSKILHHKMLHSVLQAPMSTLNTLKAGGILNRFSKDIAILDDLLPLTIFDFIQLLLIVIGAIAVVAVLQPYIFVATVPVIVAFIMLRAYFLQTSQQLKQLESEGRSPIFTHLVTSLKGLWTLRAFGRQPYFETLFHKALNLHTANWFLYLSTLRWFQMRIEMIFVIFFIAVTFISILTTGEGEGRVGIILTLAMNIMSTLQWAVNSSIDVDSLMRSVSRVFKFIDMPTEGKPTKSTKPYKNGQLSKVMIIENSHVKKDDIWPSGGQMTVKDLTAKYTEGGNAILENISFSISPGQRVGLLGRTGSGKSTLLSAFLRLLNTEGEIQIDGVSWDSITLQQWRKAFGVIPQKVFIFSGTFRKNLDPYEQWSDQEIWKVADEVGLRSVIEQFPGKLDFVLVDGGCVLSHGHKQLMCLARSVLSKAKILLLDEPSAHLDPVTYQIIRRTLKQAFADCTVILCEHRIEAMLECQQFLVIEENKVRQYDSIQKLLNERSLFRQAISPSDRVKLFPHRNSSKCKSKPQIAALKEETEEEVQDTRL
Summary of the method: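 Channel opening read as I⁻-driven quenching of a YFP H148Q/I152L/F47L reporter over 7 s post-injection, expressed as 1−F/F0 and fitted against concentration for EC50. Cells were HEK293 co-transfected at seeding with G551D CFTR plus reporter, then grown 24 h at 37 °C, 5% CO2.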

SMILES	% Activation (CFTR ΔF508 mutant) [%]	EC50 (CFTR ΔF508 mutant) [nM]	% Activation (CFTR G551D mutant) [%]	EC50 (CFTR G551D mutant) [nM]
COCCOc1nc(C(=O)NC[C@H](C)O)c(N)cc1S(=O)(=O)c1ccc(OC(F)(F)F)cc1 [Compound 288, 3-amino-N-[(2S)-2-hydroxypropyl]-6-(2-methoxyethoxy)-5-{[4-(trifluoromethoxy)phenyl]sulfonyl}pyridine-2-carboxamide]	109.0	8.7	78.3	> 3330
Nc1cc(S(=O)(=O)c2ccc(OC(F)(F)F)cc2)cnc1C(=O)NCC1CCCOC1 (stereo not shown) [Compound 143, 3-amino-N-(tetrahydro-2H-pyran-3-ylmethyl)-5-{[4-(trifluoromethoxy)phenyl]sulfonyl}pyridine-2-carboxamide]	91.4	136	80.6	2300
CC[C@@H](CO)NC(=O)c1ncc(S(=O)(=O)c2ccc(C(F)(F)F)cc2)cc1N [Compound 234, 3-amino-N-[(2S)-1-hydroxybutan-2-yl]-5-{[4-(trifluoromethyl)phenyl]sulfonyl}pyridine-2-carboxamide]	102.4	39.3	46.1	1090
Nc1cc(S(=O)(=O)c2ccc(C(F)(F)F)cc2F)cnc1C(=O)N1CC(O)(C(F)(F)F)C1 [Compound 112, (3-amino-5-{[2-fluoro-4-(trifluoromethyl)phenyl]sulfonyl}pyridin-2-yl)[3-hydroxy-3-(trifluoromethyl)azetidin-1-yl]methanone]	100.6	2.6	74.1	157
C[C@H](O)CNC(=O)c1ncc(S(=O)(=O)N2CCC[C@@H]2C)cc1N [Compound 266, 3-amino-N-[(2S)-2-hydroxypropyl]-5-{[(2S)-2-methylpyrrolidin-1-yl]sulfonyl}pyridine-2-carboxamide]	105.0	180	21.9	> 10000
CC(C)COCC(O)CNC(=O)c1ncc(S(=O)(=O)c2ccc(C(F)(F)F)cc2)cc1N (stereo not shown) [Compound 166, 3-amino-N-[2-hydroxy-3-(2-methylpropoxy)propyl]-5-{[4-(trifluoromethyl)phenyl]sulfonyl}pyridine-2-carboxamide]	111.7	17.5	69.3	661
Nc1cc(S(=O)(=O)c2ccc(OC(F)(F)F)cc2F)cnc1C(=O)NC[C@@H]1CCOC1 [Compound 116, 3-amino-5-{[2-fluoro-4-(trifluoromethoxy)phenyl]sulfonyl}-N-[(3S)-tetrahydrofuran-3-ylmethyl]pyridine-2-carboxamide]	101.1	27.7	50.0	1400
Nc1cc(S(=O)(=O)c2ccc(OC(F)(F)F)cc2)cnc1C(=O)N[C@H]1CCOC1 [Compound 144, 3-amino-N-[(3S)-tetrahydrofuran-3-yl]-5-{[4-(trifluoromethoxy)phenyl]sulfonyl}pyridine-2-carboxamide]	92.6	76.1	50.6	1120
Nc1cc(S(=O)(=O)c2ccc(OC(F)(F)F)cc2)cnc1C(=O)NCC(O)C1CCOCC1 (stereo not shown) [Compound 35, 3-amino-N-[2-hydroxy-2-(tetrahydro-2H-pyran-4-yl)ethyl]-5-{[4-(trifluoromethoxy)phenyl]sulfonyl}pyridine-2-carboxamide]	110.4	84.7	78.7	2390
COC1CCN(S(=O)(=O)c2cnc(C(=O)NCC(O)C(F)(F)F)c(N)c2)CC1 (stereo not shown) [Compound 196, 3-amino-5-[(4-methoxypiperidin-1-yl)sulfonyl]-N-(3,3,3-trifluoro-2-hydroxypropyl)pyridine-2-carboxamide]	105.4	25.7	65.4	1820
